{
  "source": "paper PMC8508710",
  "about": "“Biochemical Characterization of 13-Lipoxygenases of Arabidopsis thaliana” (International Journal of Molecular Sciences, 2021)",
  "tested_on": "pea root LOX",
  "assay": "Ex vivo pea root extract LOX activity, oxygen electrode",
  "type": "biochemical, Pisum sativum",
  "conditions": "36 µg pea root extract pretreated with 1 mM 12-OPDA",
  "procedure": "To evaluate 12-OPDA as a LOX inhibitor under native conditions, we employed pea roots as a plant LOX source. The reliability was assessed with the criterion that an increase in A234nm and, ideally, oxygen consumption occurred via the injection of plant tissue extract (0.5–2 µg/µL protein in 50 mM Tris-HCl or K-Pi, pH 6.6–8.0) in LeA (tested at 4–100 µM). […] Pea seeds (Pisum sativum “Kleine Rheinländerin”) were placed in darkness for 4 days on moist paper. The emerged roots were cut, frozen in liquid N2, and stored at −80 °C. Frozen tissue (~50 mg/mL) was pulverized in a pre-chilled mortar and immediately ground with 50 mM Tris-HCl, pH 7.2. […]\nThe immunological detection of 13-LOX was performed, based on. […] After 1 h blocking with blocking solution (1% (w/v) non-fat dry milk in TBST (150 mM NaCl, 50 mM Tris-HCl, pH 7.5, 0.05% tween 20)) and overnight incubation (4 °C) with LOX2 (At3g45140) serum (Agrisera, AS07 258, 1:25,000 in blocking solution), the blot was washed with TBST and incubated (2 h, 25 °C) with horseradish peroxidase-coupled anti-rabbit IgG as second antibody (1:20,000 in blocking solution) for the subsequent luminescence detection of immunodecorated LOX on X-ray films (30 s incubation). […] The mixture was injected in 1.8 mL of 20 µM LeA (in 50 mM Tris-HCl, pH 7.2) and recorded for oxygen consumption.",
  "data": [
    {"smiles": "CCC=CCC1C(=O)C=CC1CCCCCCCC(=O)O", "note": "(stereo not drawn) [12-OPDA, cis-(+)-12-oxophytodienoic acid]", "values": [
      {"measurement": "Inhibition of activity", "setting": "20 µM LeA", "value": "about 43%"},
      {"measurement": "Oxygen consumption", "setting": "control 4.6 ± 0.5", "value": "2.0 ± 0.5", "unit": "nmol/mL/min"}
    ]}
  ]
}
